Patent US5187171A (G. D. Searle & Co., priority 1989, dated 1993)

Legend:
[1] = system: mentally disturbed patients; settings: 500 mg per day, cited from earlier work
[2] = molecular target: T1, NMDA receptor-associated glycine recognition site ("Glycine B receptor") (Rattus norvegicus, UniProt P35439); test: TCP modulation assay (stimulation of [3H]TCP binding); assay type: biochemical; settings: basal [3H]TCP binding
T1 construct: synaptic plasma membranes (SPM) prepared from rat forebrain; from tissue; host or cells: rat forebrain (male Sprague-Dawley, animals from Sasco) synaptic plasma membranes, Triton X-100 washed
Procedure: [^3 H]TCP binding was performed using Triton X-100 washed synaptic plasma membranes (SPM) prepared from rat forebrain (30-45 day old, male Sprague-Dawley; Sasco, St. Charles, Mo.) as described previously [J. W. Thomas, W. F. Hood, J. B. Monahan, P. C. Contreras and T. L. O'Donohue, Brain Res., 442, 396-398 (1988)]. […] The samples were then filtered through glass fiber filters (Schleicher and Schuell #32) which were pretreated with 0.05% (v/v) polyethylenimine. The filters were washed and the radioactivity quantitated by liquid scintillation spectrometry. […] The EC50 values for the stimulation of [^3 H]TCP binding were determined using a four parameter logistic regression analysis.

N[C@@H]1CONC1=O [D-cycloserine, 4-amino-3-isoxazolidone]
Clinical response ([1]; mentally disturbed patients): improvements in depression, insomnia, anexoria or tension were found for some patients
Clinical response of patients suffering from severe neurosis or psychosis [1]: responded poorly
Maximal stimulation of [3H]TCP binding compared with glycine and D-serine [2]: significantly less than that produced by both glycine and D-serine
